Source: paper PMC8453635, “Piperidine Azasugars Bearing Lipophilic Chains: Stereoselective Synthesis and Biological Activity as Inhibitors of Glucocerebrosidase (GCase)” (The Journal of Organic Chemistry, 2021)

Molecular target: T1, β-mannosidase (Homo sapiens, UniProt O00462)
T1 construct: from leukocytes isolated from healthy donors (controls); from tissue; host or cells: leukocytes from healthy donors, sonicated homogenate
T1 sequence (O00462 18-879): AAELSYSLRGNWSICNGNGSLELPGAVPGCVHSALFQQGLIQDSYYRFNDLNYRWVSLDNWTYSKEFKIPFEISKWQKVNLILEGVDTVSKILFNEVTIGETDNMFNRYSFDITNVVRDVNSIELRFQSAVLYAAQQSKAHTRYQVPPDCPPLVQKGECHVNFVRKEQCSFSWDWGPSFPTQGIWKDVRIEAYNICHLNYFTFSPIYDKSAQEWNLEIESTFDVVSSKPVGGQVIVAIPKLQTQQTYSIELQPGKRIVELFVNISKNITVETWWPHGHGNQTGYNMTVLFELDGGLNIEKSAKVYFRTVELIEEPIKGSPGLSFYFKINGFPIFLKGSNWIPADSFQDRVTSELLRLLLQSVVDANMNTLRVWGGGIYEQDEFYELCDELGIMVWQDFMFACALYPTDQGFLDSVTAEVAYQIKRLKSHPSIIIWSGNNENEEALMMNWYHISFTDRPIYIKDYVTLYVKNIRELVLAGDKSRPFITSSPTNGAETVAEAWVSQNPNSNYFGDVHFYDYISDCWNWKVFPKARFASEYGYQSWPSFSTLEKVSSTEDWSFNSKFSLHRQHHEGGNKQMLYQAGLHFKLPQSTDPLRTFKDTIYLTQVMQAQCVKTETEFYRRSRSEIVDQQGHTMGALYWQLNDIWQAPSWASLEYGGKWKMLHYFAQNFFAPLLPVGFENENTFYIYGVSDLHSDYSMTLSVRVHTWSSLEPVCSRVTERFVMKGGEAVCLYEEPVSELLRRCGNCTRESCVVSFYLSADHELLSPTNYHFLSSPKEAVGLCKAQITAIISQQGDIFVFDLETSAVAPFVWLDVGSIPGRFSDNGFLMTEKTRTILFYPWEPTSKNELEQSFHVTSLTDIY
Test: Human lysosomal glycosidase selectivity screening (leukocyte homogenate)
Assay type: biochemical
Details: 1 mM, read-out: percentage of inhibition, β-Man
Method: In order to avoid undesired inhibitory side effects of a potential new drug, it has to be selective for a given target. The selectivity of the newly synthesized compounds 14, 15, and 33·HCl toward GCase was then investigated, evaluating their inhibition at 1 mM concentration toward six other lysosomal glycosidases (namely, α-and β-mannosidases, α- and β-galactosidases, α-fucosidase, and α-glucosidase) in cell homogenates (leucocytes or lymphocytes) isolated from healthy donors. […] Indeed, only moderate inhibitory activity (ca. 50%) was found toward human β-galactosidase for both piperidines 14 and 15, while negligible inhibitory activity was detected in all other cases.
(§1) The effect of 1 mM concentration of 14, 15, and 33·HCl was assayed toward six lysosomal glycosidases other than GCase, namely, α-mannosidase, β-mannosidase, α-galactosidase, β-galactosidase, α-fucosidase from leukocytes isolated from healthy donors (controls) and α-glucosidase from lymphocytes isolated from healthy donors’ flesh blood (controls). Isolated leukocytes or lymphocytes were disrupted by sonication, and a micro BCA protein assay kit (Sigma-Aldrich) was used to determine the total protein amount for the enzymatic assay, according to the manufacturer’s instructions (for more details, see the Supporting Information section).
Selectivity of compounds 14, 15 and 33.HCl towards lysosomal enzymes.
as §1, with “15” for “15,”, “33.HCl” for “33·HCl”, “towards” for “toward”, “namely:” for “namely,”, “(Sigma–Aldrich)” for “(Sigma-Aldrich)”, “manufacturer instructions. […]” for “manufacturer’s instructions (for more details, see the Supporting Information section).”
Molecular Devices). Inhibition is given with respect to the control (without azasugar). Data are mean SD (n=3). […]
Inhibition is given with respect to the control (without azasugar). Data are mean SD (n=3). […]
(1 picture or pasted object on this page, not shown here) […]
α-Fucosidase activity was measured in a flat -bottomed 96 -well plate. Azasugar solution (3 μL), 4.29 μg/μL leukocytes homogenate 1:3 (7 μL), and substrate 4 -methylumbe lliferyl α-L-fucopyranoside (1.51 mM, 20 μL, Sigma –Aldrich) in Na phosphate/citrate buffer (0.2:0.1, M/M, pH 5.5) were incubated at 37 °C for 1 h. […]
Data are mean SD (n=3). S74 […]
α-Glucosidase activity was measured in a flat –bottomed 96 well plate. Azasugar solution (3 µL), 4.29 µg/µL lymphocytes homogenate (7µL) and 20 µL of substrate solution of 4 -methylumbelliferyl -α-D-glucopyranoside (Sigma -Aldrich) in Na a cetate buffer (0.2 M, pH 4.0) were incubated for 1 h at 37 °C. The reaction was stopped by the addition of a solution of sodium carbonate (200 µL; 0.5M, pH 10.7) containing Triton X -100 (0.0025 %), and the fluorescence of 4 -methylumbelliferone released by α-glucosidase activity was measured in […]
respect to the control (without azasugar). Data are means of 3 values. […]
Figure S 48. Activity of a panel of 6 hu man lysosomal glycosidases in the presence of compounds 14, 15 and 33.HCl (1 mM ). The corresponding calculated percentage of inhibition is indicated above each bar.

| SMILES | inhibition at 1000 µM [%] |
| --- | --- |
| CCCCCCCC[C@H]1[C@@H](O)[C@H](O)[C@H](O)CN1CCCCCCCC [compound 14, (2S,3R,4R,5R)-1,2-Dioctylpiperidine-3,4,5-triol] | 0 |
| CCCCCCCC[C@@H]1[C@@H](O)[C@H](O)[C@H](O)CN1CCCCCCCC [compound 15, (2R,3R,4R,5R)-1,2-Dioctylpiperidine-3,4,5-triol] | 1 |
| CCCCCCCC[C@@H]1[C@@H](O)[C@H](O)[C@H](O)CN1C(CCCCCCC)CCCCCCC.Cl [compound 33·HCl, (2R,3R,4R,5R)-2-Octyl-1-(pentadecan-8-yl)-piperidine-3,4,5-triol Hydrochloride] | 2 |
